Measured values: PMC9201908, “Expansion of the Strigolactone Profluorescent Probes Repertory: The Right Probe for the Right Application” (Frontiers in Plant Science, 2022)
“Also recorded” adds a separate entry of the source. Read-outs that look alike come from different tables or passages of the source.

Columns and labels:
RMS3 protein = biological target: T1, RMS3 protein (Pisum sativum, UniProt A0A109QYD3); test: Enzymatic assay with profluorescent probes, RMS3; assay type: biochemical; conditions: probe 10 μM; for Cleavage kinetics by RMS3: RMS3 400 nM, 25°C, result in words; for Cleavage of probe by RMS3: protein 0.33 μM
T1 construct: GST; made in house
T1 sequence (A0A109QYD3 1-267): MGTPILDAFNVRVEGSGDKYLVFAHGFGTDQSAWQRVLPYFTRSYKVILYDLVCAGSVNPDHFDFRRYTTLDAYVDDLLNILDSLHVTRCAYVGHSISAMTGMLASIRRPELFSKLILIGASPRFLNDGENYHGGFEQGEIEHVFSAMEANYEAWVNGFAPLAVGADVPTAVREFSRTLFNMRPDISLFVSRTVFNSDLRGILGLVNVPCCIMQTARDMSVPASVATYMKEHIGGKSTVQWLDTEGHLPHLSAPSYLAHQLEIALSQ

[1] = test system: rms1-10 pea mutant plants; conditions: direct application, rms1-10, tested previously, ref De saint Germain et al 2016, cited from earlier work
OsD14 = biological target: T2, OsD14 (Oryza sativa subsp. japonica, UniProt Q10QA5); test: Enzymatic assay with profluorescent probes, OsD14; assay type: biochemical, Ozyza sativa; conditions: protein 0.33 μM, probe 10 μM
T2 construct: GST (N); made in house
T2 sequence (Q10QA5 with tags, fused parts or gaps): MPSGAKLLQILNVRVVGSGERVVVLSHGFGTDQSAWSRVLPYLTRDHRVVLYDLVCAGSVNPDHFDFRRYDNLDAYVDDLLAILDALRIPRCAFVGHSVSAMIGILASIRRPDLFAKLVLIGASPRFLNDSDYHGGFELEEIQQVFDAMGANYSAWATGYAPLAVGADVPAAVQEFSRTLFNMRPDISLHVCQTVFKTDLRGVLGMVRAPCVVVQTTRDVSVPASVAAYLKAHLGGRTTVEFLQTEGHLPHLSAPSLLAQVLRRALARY
Procedure: (§1) The enzyme activity was determined by measuring the release of the fluorescent intensities of each fluorophores resulting from the cleavage of profluorescent probes by RMS3, AtD14, OsD14, and DAD2 proteins in a SPARK M10 in a 96-well format (de Saint Germain et al., [2021a]). In the assay, using an Integra Viaflo 96 robot, 50 μL of a solution of protein at 0.33 μM in same buffer was added simultaneously in all 96 wells to 50 μL of profluorescent substrate solution (at varying concentrations, prepared from a 10 mM stock solution in 100% of DMSO) in PBS (100 mM of phosphate, pH 6.8, 150 mM of NaCl). After a lag time of 15 s, the formation of fluorophores was recorded over 3 h at 15 s intervals at 25°C. […] All experiments were repeated with three technical replicates. The fluorescence of each fluorophore was also determined for each measurement at the same time frame but in the absence of enzyme in order to determine the standard curves. For rapid enzymatic assays (Figure 8A, small panel), the solution of protein was added by the injector of the plate reader and then, the well was immediately read over 5 min with 1 s intervals. Same parameters were used to determine the fluorophore concentration.

[2] = test system: rms1-10 pea mutant plants; test: Pea shoot-branching assay by direct application on the bud, rms1-10; assay type: in vivo, Pisum sativum; conditions: for Bioactivity on shoot branching inhibition (bud development): result in words; for Length of bud at node 3 /branch: direct application, rms1-10, 10 days after treatment, mean per replicate
Procedure: (§2) Pea (Pisum sativum) branching mutant plants used in this study were described previously (Rameau et al., [1997]). The SL biosynthesis rms1-10 (M3T-884) and SL response rms3-4 (M2T-30) mutants were obtained from the dwarf cv. Térèse. Plants were grown in a greenhouse under long days as described by Braun et al. ([2012]).
(§3) The compounds to be tested were applied directly to the axillary bud with a micropipette as 10 μL of a solution containing 0.1% of acetone with 2% of polyethylene glycol 1,450, 50% of ethanol, and 0.4% of DMSO. The control 0 is the treatment with 0.1% of DMSO without compound. A total of 24 plants were sown per treatment in trays (2 repetitions of 12 plants). The treatment was done 8 days after sowing, on the axillary bud at node 3. The branches at nodes 1–2 were removed to encourage the outgrowth of axillary buds at nodes above. Nodes were numbered acropetally from the first scale leaf as node 1 and cotyledonary node as node 0. Bud growth at node 3 was measured 10 days after treatment. Plants with damaged main shoot apex or showing a dead white treated bud were discarded from the analysis. The SL-deficient rms1-10 pea mutant was used for all experiments and WT Térèse as control. SL-perceived rms3-4 pea mutant was used to test that when bioactive, the analog acts via RMS3, and it was also used to check the putative toxicity of probes.

AtD14 = biological target: T3, AtD14 (Arabidopsis thaliana, UniProt Q9SQR3); test: Enzymatic assay with profluorescent probes, AtD14; assay type: biochemical; conditions: protein 0.33 μM, probe 10 μM
T3 construct: GST; made in house
T3 sequence (Q9SQR3 1-267): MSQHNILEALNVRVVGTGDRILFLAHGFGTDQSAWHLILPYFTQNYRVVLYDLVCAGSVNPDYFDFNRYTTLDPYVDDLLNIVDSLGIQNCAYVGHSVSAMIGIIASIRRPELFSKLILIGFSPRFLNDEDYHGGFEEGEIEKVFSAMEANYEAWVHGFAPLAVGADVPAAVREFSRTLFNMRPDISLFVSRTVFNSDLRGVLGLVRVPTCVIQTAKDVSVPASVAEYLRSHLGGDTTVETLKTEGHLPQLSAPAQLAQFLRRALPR
Procedure: as §1

DAD2 = biological target: T4, DAD2 (Petunia hybrida, UniProt J9U5U9); test: Enzymatic assay with profluorescent probes, DAD2; assay type: biochemical; conditions: protein 0.33 μM, probe 10 μM
T4 construct: GST (N); made in house
T4 sequence (J9U5U9 1-267): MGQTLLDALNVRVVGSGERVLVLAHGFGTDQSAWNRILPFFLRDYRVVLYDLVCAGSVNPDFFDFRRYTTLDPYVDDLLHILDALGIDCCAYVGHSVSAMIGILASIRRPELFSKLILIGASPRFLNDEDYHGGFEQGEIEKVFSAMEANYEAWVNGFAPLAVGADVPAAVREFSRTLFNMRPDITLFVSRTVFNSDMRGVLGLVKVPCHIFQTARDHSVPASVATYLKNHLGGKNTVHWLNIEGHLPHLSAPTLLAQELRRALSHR
Procedure: as §1

[3] = test system: Arabidopsis SL-deficient mutant max3-11; conditions: ref de Saint Germain et al., 2016; cited from earlier work
Ppccd8 mutant plants [4] = test: Physcomitrium patens bioassay, number of filaments in the dark; assay type: in vivo; conditions: 1 μM
Procedure: Assays on Physcomitrium patens were performed on plants grown in 24-well plates, starting from very small pieces of moss tissues as described by Guillory and Bonhomme ([2021]). As for pea rms1, the Ppccd8 SL synthesis mutant was used for assays, since the effect of the compounds was better seen in this mutant vs. wild type (WT; Lopez-Obando et al., [2021]). For each treatment, 24 plants were grown in PpNO3 medium [minimal medium described by Ashton et al., [1979]], dispatched in three different plates. Plants were grown for 2 weeks under control conditions, then treated with fluorophores or probes (all compounds used at 1 μM), before being placed vertically in the dark for 10 days. A single picture of each well was taken under an Axio Zoom microscope (Zeiss) with a dedicated program. Filaments were counted using ImageJ software (http://imagej.nih.gov/ij/) as described by Guillory and Bonhomme ([2021]). Twenty-four plants were tested in each treatment.

Ppccd8 mutant plants [5] = conditions: WT and Ppccd8; ref Hoffmann et al., 2014; Lopez-Obando et al., 2021; cited from earlier work
rms3-4 pea mutant plants = test: Pea shoot-branching assay by direct application on the bud, rms3-4; assay type: in vivo, Pisum sativum; conditions: rms3-4, 10 days after treatment
Procedure: as §2, §3

[6] = test system: Arabidopsis SL-deficient mutant max3-11; test: Hydroponic assay on Arabidopsis, rosette branches; assay type: in vivo, Arabidopsis thaliana; conditions: max3-11, hydroponic, 0.5 and 3 μM
Procedure: The hydroponic assay was adapted from the study by Cornet et al. ([2021]). Seeds were surface-sterilized for 8 min in a solution of ethanol (95%) and hypochlorite solution (10%; Bayrol, Mundolsheim, France) and were rinsed two times with ethanol (100%). Each seed was sown on top of a cut 0.5 ml Eppendorf tube filled with agar medium containing 0.65% of agar and 10% of nutritive solution of 5 mM NO3. Tubes were soaked in water and stored in the dark at 4°C for 2 days. Twelve plants per pipette tip box (13 × 9 × 7 cm) were grown and supplied with nutrient solution as in the study by Boyer et al. ([2014]) at a concentration of 5 ml/L (750 ml of solution per box). Every week, the nutrient solution was renewed and every 10 days one time, a fresh batch of treatment was added to the solution. The first treatment occurred at day 27 after sowing when plants started to bolt. The number of rosette branches was counted at day 42.

[7] = test system: rms1-10 pea mutant plants; test: Pea shoot-branching assay by vascular supply, rms1-10; assay type: in vivo, Pisum sativum; conditions: rms1-10, 3,000 nM
Procedure: as §2
The compounds to be tested were applied by vascular supply (Muñoz et al., [2021]). The control was the treatment with 0.1% of DMSO in water. A total of 12 plants were sown per treatment in trays and were treated with probes under node 3 bud generally 10 days after sowing. Compounds in DMSO solution were diluted with water to 3,000 nM for a treatment with 0.1% (v/v) DMSO. The branches at nodes 1 and 2 were removed to encourage the outgrowth of axillary buds at the nodes above. Nodes were numbered acropetally from the first scale leaf as node 1 and cotyledonary node as node 0. Bud growth at nodes 3 and 4 was measured with digital calipers 8–10 days after treatment. Plants with damaged main shoot apex or with a dead white treated-bud were discarded from the analysis. The SL-deficient rms1-10 pea mutant was used for all experiments.

ShD14 = test system: ShD14; design: method as in Xu et al., 2018; conditions: ref Xu et al., 2018; cited from earlier work
[8] = Stability of CoumarinAc and DiFMUAc (DMSO, PBS); assay type: physicochemical; conditions: in PBS and in DMSO (20°C), in comparison to CoumarinAc
Procedure: Dimethyl sulfoxide (DMSO) solution of the compound to be tested (1 mM) was incubated at 20°C in the HPLC vials. (±)-1-Indanol [Alfa Aesar, purity >97.5% (GC); 10 mM] was used as the internal standard. The samples were subjected to reverse-phase-ultra-performance liquid chromatography (RP-UPLC)-MS analyses by means of UPLC system equipped with a photo diode array (PDA) and a triple quadrupole detector (TQD) mass spectrometer (Acquity UPLC-TQD, Waters). RP-UPLC (HSS C18 column, 1.8 μm, 2.1 × 50 mm) with 0.1% (v/v) of formic acid in CH3CN and 0.1% (v/v) of formic acid in water (aq. FA, 0.1%, v/v, pH 2.8) were used as eluents [10% CH3CN, followed by linear gradient from 10 to 100% of CH3CN (4 min)] at a flow rate of 0.6 ml min^−1. The detection was done by PDA and with the TQD mass spectrometer operated in electrospray ionization-positive mode at 3.2 kV capillary voltage. To maximize the signal, the cone voltage and collision energy were optimized to 20 V and 12 eV, respectively. The collision gas used was argon at a pressure maintained near 4.5 10^−3 mBar. The relative quantity of the remaining (non-degraded) product was determined by integration comparison with the internal standard.

| SMILES | Cleavage kinetics by RMS3 (RMS3 protein) | Cleavage of probe by RMS3 (RMS3 protein) | Cleavage of probe by OsD14 (OsD14) | Bioactivity on shoot branching inhibition (bud development) ([2]; rms1-10, direct application) | Cleavage of probe by AtD14 (AtD14) | Cleavage of probe by DAD2 (DAD2) | Activity on filament number (Ppccd8 mutant plants [4]) | Length of bud at node 3 /branch ([2]; 10 nM) [mm] | further results |
| --- | --- | --- | --- | --- | --- | --- | --- | --- | --- |
| CC1=CC(Oc2c(F)cc3c(C)cc(=O)oc3c2F)OC1=O (racemic) [(±)-GC240] | Two-phase cleavage kinetics; also recorded: blocked at very low concentration | able to cleave | able to cleave | inhibition of bud development; also recorded: less efficient than (±)-GR24 | able to cleave | able to cleave |  |  | Length of bud at node 3 /branch ([1]; 1,000 nM): 2.52 mm; Length of bud at node 3 /branch ([1]; 5,000 nM): 2.61 mm; Affinity of the rice SL receptor suggested by cleavage profile (OsD14): lower affinity |
| CC1=C(C)C(Oc2c(F)cc3c(C)cc(=O)oc3c2F)OC1=O (racemic) [(±)-GC242] | Two-phase cleavage kinetics; also recorded: blocked at very low concentration; also recorded: two-phase kinetic | able to cleave | able to cleave | among the most bioactive molecules | able to cleave | able to cleave | confirmed the previous activity |  | Bioactivity in Arabidopsis [3]: previously found bioactive; Length of bud at node 3 /branch ([2]; 10,000 nM): 1.77 mm; Effect on filament number (Ppccd8 mutant plants [5]): dose-dependent decrease in the filament number; Length of bud at node 3 /branch (rms3-4 pea mutant plants; 1,000 nM): 35.80; Length of bud at node 3 /branch (rms3-4 pea mutant plants; 5,000 nM): 33.76 |
| CCOC(=O)c1ccccc1-c1c2ccc(=O)cc-2oc2cc(OC3C=C(C)C(=O)O3)ccc12 (racemic) [(±)-YLG, reference compound] |  |  | unable to cleave | inhibition of bud development; also recorded: less efficient than (±)-GR24 |  |  | less active | 24.15 | Bioactivity on number of rosette branches [6]: not bioactive; Bioactivity by vascular supply compared to the coumarin derivatives series [7]: lower bioactivity; Cleavage by ShD14 (ShD14): not able to cleave; Activity on filament number, one bioassay replication (Ppccd8 mutant plants [4]; Supplementary Figure 3): no significant bioactivity |
| CC(=O)Oc1c(F)cc2c(C)cc(=O)oc2c1F [DiFMUAc] |  |  |  | no effect |  |  |  | 23.71 | Stability [8]: poorly stable; Length of bud at node 3 /branch ([2]; 100 nM): 19.75 mm; Length of bud at node 3 /branch ([2]; 1,000 nM): 22.17 mm; Effect on axillary bud ([2]; rms1-10, direct application, 100 nM): significant effect |
